The text below walks through data of patent US9505742B2, “3,4-dihydro-2H-isoquinoline-1-one and 2,3-dihydro-isoindol-1-one compounds” (Hoffmann-La Roche Inc., priority 2013, dated 2016).

One assay concerns the target T1, human CYP11B1 (Homo sapiens, UniProt P15538).
T1 construct: The expression plasmids contains the ORF for either human/cyno CYP11B1 or CYP11B2; expressed in transfected cells
T1 sequence (P15538 25-503): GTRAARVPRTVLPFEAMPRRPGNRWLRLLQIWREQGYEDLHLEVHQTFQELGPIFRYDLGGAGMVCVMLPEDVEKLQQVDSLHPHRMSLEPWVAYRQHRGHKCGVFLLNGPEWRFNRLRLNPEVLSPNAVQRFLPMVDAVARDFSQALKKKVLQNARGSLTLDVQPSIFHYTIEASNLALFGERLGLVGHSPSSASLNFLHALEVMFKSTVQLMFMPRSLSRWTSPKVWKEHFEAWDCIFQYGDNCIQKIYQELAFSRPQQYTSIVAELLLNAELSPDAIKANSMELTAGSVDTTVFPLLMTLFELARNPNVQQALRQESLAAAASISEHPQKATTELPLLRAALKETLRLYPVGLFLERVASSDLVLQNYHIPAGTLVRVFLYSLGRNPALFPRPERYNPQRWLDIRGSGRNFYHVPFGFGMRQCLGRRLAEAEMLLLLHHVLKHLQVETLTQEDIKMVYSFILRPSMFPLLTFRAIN
In words: G-402 cellular enzyme assay, human CYP11B1 (cortisol release, HTRF). In kind it is cell-based. Conditions: G-402 cells expressing human CYP11B1; 1 μM Deoxycortisol. The source says:
(§1) Herein we identified the use of the G-402 cell line as a host cell to ectopically express (transiently or stably) enzymes of the CYP11 family. Specifically we developed stable G-402 cells expressing ectopically human CYP11B1, human CYP11B2, human CYP11A1, cynmolgus CYP11B1 or cynomolgus CYP11B2 enzyme activity. Importantly the identified cell line G-402 expresses co-factors (adrenodoxin and adrenodoxin reductase) important for the activity of the CYP11 family and no relevant enzyme activity of the CYP11 family (in comparison to H295R cells) was detected in these cells. Therefore the G-402 cell line is uniquely suited as a host cell for the ectopic expression of enzymes from the CYP11 family. G-402 cells can be obtained from ATCC (CRL-1440) and were originally derived from a renal leiomyoblastoma.
(§2) The expression plasmids contains the ORF for either human/cyno CYP11B1 or CYP11B2 under the control of a suitable promoter (CMV-promoter) and a suitable resistance marker (neomycin). Using standard techniques the expression plasmid is transfected into G-402 cells and these cells are then selected for expressing the given resistance markers. Individual cell-clones are then selected and assessed for displaying the desired enzymatic activity using 11-Deoxycorticosterone (Cyp11B2) or 11-Deoxycortisol (Cyp11B) as a substrate.
(§3) G-402 cells expressing CYP11 constructs were established as described above and maintained in McCoy's 5a Medium Modified, ATCC Catalog No. 30-2007 containing 10% FCS and 400 μg/ml G418 (Geneticin) at 37° C. under an atmosphere of 5% CO2/95% air. Cellular enzyme assays were performed in DMEM/F12 medium containing 2.5% charcoal treated FCS and appropriate concentration of substrate (0.3-10 uM 11-Deoxycorticosterone, 11-Deoxycortisol or Corticosterone). For assaying enzymatic activity, cells were plated onto 96 well plates and incubated for 16 h. An aliquot of the supernatant is then transferred and analyzed for the concentration of the expected product (Aldosterone for CYP11B2; Cortisol for CYP11B1). The concentrations of these steroids can be determined using HTRF assays from CisBio analyzing either Aldosterone or Cortisol.
(§4) Inhibition of the release of produced steroids can be used as a measure of the respective enzyme inhibition by test compounds added during the cellular enzyme assay. The dose dependent inhibition of enzymatic activity by a compound is calculated by means of plotting added inhibitor concentrations (x-axes) vs. measured steroid/product level (y-axes). The inhibition is then calculated by fitting the following 4-parameter sigmoidal function (Morgan-Mercer-Flodin (MMF) model) to the raw data points using the least squares method:
(§5) [formula] wherein, A is the maximum y value, B is the EC50 factor determined using XLFit, C is the minimum y value and D is the slope value.
(§6) EC50 values for compounds claimed herein were tested with the G402-based assay system described. Cyp11B2 enzyme activity was tested in presence of 1 μM Deoxycorticosterone and variable amounts of inhibitors; Cyp11B1 enzyme activity was tested in presence of 1 μM Deoxycortisol and variable amounts of inhibitors.

The next assay concerns the target T2, human CYP11B2 (Homo sapiens, UniProt P19099).
T2 construct: The expression plasmids contains the ORF for either human/cyno CYP11B1 or CYP11B2; expressed in transfected cells
T2 sequence (P19099 25-503): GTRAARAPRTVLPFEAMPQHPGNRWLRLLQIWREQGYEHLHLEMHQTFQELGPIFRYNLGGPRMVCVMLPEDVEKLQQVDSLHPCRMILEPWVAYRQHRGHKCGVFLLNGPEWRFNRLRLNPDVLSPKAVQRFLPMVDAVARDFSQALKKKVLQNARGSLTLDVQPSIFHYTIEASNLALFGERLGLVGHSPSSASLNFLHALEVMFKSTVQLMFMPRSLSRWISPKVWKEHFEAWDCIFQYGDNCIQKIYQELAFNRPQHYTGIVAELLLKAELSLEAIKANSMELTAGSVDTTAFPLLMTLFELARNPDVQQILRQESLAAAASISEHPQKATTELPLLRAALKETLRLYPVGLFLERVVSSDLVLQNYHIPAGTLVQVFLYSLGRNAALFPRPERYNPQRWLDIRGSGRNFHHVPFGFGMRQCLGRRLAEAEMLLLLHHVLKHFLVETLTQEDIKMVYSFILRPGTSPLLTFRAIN
In words: G-402 cellular enzyme assay, human CYP11B2 (aldosterone release, HTRF). The settings on record: G-402 cells expressing human CYP11B2; 1 μM Deoxycorticosterone. The format is cell-based.
Excerpt: as §1, §2, §3, §4, §5, §6
A general note: TR-FRET usually uses a lanthanide donor and a delayed reading to cut background.

Structures are written as SMILES. pEC50: −log10 of the molar value.

The term pEC50 denotes −log10 of the EC50, conventionally taken in molar units. Read a high pEC50 as a small EC50. `CCS(=O)(=O)N1CCC(F)(c2cncc(N3C(=O)c4ccc(Cl)cc4C3(C)C)c2)CC1` [Example 30, 5-Chloro-2-[5-(1-ethylsulfonyl-4-fluoropiperidin-4-yl)pyridin-3-yl]-3,3-dimethylisoindol-1-one]: the results for the negative-log EC50 (pEC50) at human CYP11B1 and at human CYP11B2 were 6.82 and 9.00, respectively.

Regarding `CC(C)S(=O)(=O)N1CCC(F)(c2cncc(N3C(=O)c4ccc(Cl)cc4C3(C)C)c2)CC1` [Example 31, 5-Chloro-2-[5-(4-fluoro-1-propan-2-ylsulfonylpiperidin-4-yl)pyridin-3-yl]-3,3-dimethylisoindol-1-one], the figures for the negative logarithm of the EC50 (pEC50) on human CYP11B1 and at human CYP11B2 were 6.11 and 8.82, respectively.

As to `CCS(=O)(=O)N1CC(c2cncc(N3C(=O)c4ccc(Cl)cc4C3(C)C)c2)C1` [Example 32, 5-Chloro-2-[5-(1-ethylsulfonylazetidin-3-yl)pyridin-3-yl]-3,3-dimethylisoindol-1-one], the values for the pEC50 at human CYP11B1 and at human CYP11B2 were 6.21 and 8.15, respectively.

Take `CC(=O)N1CC(c2cncc(N3C(=O)c4ccc(Cl)cc4C3(C)C)c2)C1` [Example 33, 2-[5-(1-Acetylazetidin-3-yl)pyridin-3-yl]-5-chloro-3,3-dimethylisoindol-1-one]: the results for the pEC50 at human CYP11B1 and on human CYP11B2 were 5.34 and 6.83, respectively.

For the compound `CCCS(=O)(=O)N1CC(c2cncc(N3C(=O)c4ccc(Cl)cc4C3(C)C)c2)C1` [Example 34, 5-Chloro-3,3-dimethyl-2-[5-(1-propylsulfonylazetidin-3-yl)pyridin-3-yl]isoindol-1-one], the pEC50 at human CYP11B1 was 6.31; on human CYP11B2 it was 7.89.

Regarding `CC1(C)c2cc(Cl)ccc2C(=O)N1c1cncc(C2CN(S(=O)(=O)C3CC3)C2)c1` [Example 35, 5-Chloro-2-[5-(1-cyclopropylsulfonylazetidin-3-yl)pyridin-3-yl]-3,3-dimethylisoindol-1-one], the negative-log EC50 (pEC50) was 6.49 on human CYP11B1 and 8.10 at human CYP11B2.

Consider `Cc1ccncc1C(=O)N1CC(c2cncc(N3C(=O)c4ccc(Cl)cc4C3(C)C)c2)C1` [Example 36, 5-Chloro-3,3-dimethyl-2-[5-[1-(4-methylpyridine-3-carbonyl)azetidin-3-yl]pyridin-3-yl]isoindol-1-one], for which the pEC50 at human CYP11B1 was 5.85; at human CYP11B2, 7.74.

`CCCS(=O)(=O)N1CCC(F)(c2cncc(N3C(=O)c4ccc(Cl)cc4C3(C)C)c2)CC1` [Example 37, 5-Chloro-2-[5-(4-fluoro-1-propylsulfonyl-4-piperidyl)-3-pyridyl]-3,3-dimethyl-isoindolin-1-one]: the results for the negative-log EC50 (pEC50) on human CYP11B1 and at human CYP11B2 were 7.01 and 8.70, respectively.

As to `CC1(C)c2cc(Cl)ccc2C(=O)N1c1cncc(C2(F)CCN(S(=O)(=O)C3CC3)CC2)c1` [Example 38, 5-Chloro-2-[5-(1-cyclopropylsulfonyl-4-fluoro-4-piperidyl)-3-pyridyl]-3,3-dimethyl-isoindolin-1-one], the pEC50 at human CYP11B1 was 6.24; at human CYP11B2, 9.00.

Take `CC(C)S(=O)(=O)N1CCC(F)(c2cncc(N3C(=O)c4ccc(C#N)cc4C3(C)C)c2)CC1` [Example 39, 2-[5-(4-Fluoro-1-isopropylsulfonyl-4-piperidyl)-3-pyridyl]-3,3-dimethyl-1-oxo-isoindoline-5-carbonitrile]: the negative-log EC50 (pEC50) on human CYP11B1 was 5.73; on human CYP11B2, 8.05.

Turning to `CCS(=O)(=O)N1CCC(F)(c2cncc(N3C(=O)c4ccc(OC)nc4C3(C)C)c2)CC1` [Example 40, 6-[5-(1-Ethylsulfonyl-4-fluoro-4-piperidyl)-3-pyridyl]-2-methoxy-7,7-dimethyl-pyrrolo[3,4-b]pyridin-5-one], the pEC50 is 5.62 on human CYP11B1 and 7.72 on human CYP11B2.

`COc1ccc2c(n1)C(C)(C)N(c1cncc(C3(F)CCN(C(=O)c4cnn(C)c4)CC3)c1)C2=O` [Example 41, 6-[5-[4-Fluoro-1-(1-methylpyrazole-4-carbonyl)-4-piperidyl]-3-pyridyl]-2-methoxy-7,7-dimethyl-pyrrolo[3,4-b]pyridin-5-one]: the pEC50 was 6.01 on human CYP11B1 and 7.46 on human CYP11B2.

`COc1ccc2c(n1)C(C)(C)N(c1cncc(C3(F)CCN(S(=O)(=O)C(C)C)CC3)c1)C2=O` [Example 42, 6-[5-(4-Fluoro-1-isopropylsulfonyl-4-piperidyl)-3-pyridyl]-2-methoxy-7,7-dimethyl-pyrrolo[3,4-b]pyridin-5-one]: the figures for the negative logarithm of the EC50 (pEC50) at human CYP11B1 and at human CYP11B2 were 5.09 and 7.47, respectively.

Regarding `CCCS(=O)(=O)N1CCC(F)(c2cncc(N3C(=O)c4ccc(OC)nc4C3(C)C)c2)CC1` [Example 43, 6-[5-(4-Fluoro-1-propylsulfonyl-4-piperidyl)-3-pyridyl]-2-methoxy-7,7-dimethyl-pyrrolo[3,4-b]pyridin-5-one], the pEC50 at human CYP11B1 is 5.72; on human CYP11B2 it was 7.68.

For the compound `COc1ccc2c(n1)C(C)(C)N(c1cncc(C3(F)CCN(C(=O)c4nccn4C)CC3)c1)C2=O` [Example 44, 6-[5-[4-Fluoro-1-(1-methylimidazole-2-carbonyl)-4-piperidyl]-3-pyridyl]-2-methoxy-7,7-dimethyl-pyrrolo[3,4-b]pyridin-5-one], the values for the pEC50 at human CYP11B1 and at human CYP11B2 were 8.10 and 8.40, respectively.

`COc1ccc2c(n1)C(C)(C)N(c1cncc(C3(F)CCN(S(=O)(=O)C4CC4)CC3)c1)C2=O` [Example 45, 6-[5-(1-Cyclopropylsulfonyl-4-fluoro-4-piperidyl)-3-pyridyl]-2-methoxy-7,7-dimethyl-pyrrolo[3,4-b]pyridin-5-one]: the figures for the pEC50 on human CYP11B1 and at human CYP11B2 were 5.90 and 7.52, respectively.

Take `CCS(=O)(=O)N1CCC(c2cncc(N3C(=O)c4ccc(OC)nc4C3(C)C)c2)CC1` [Example 46, 6-[5-(1-Ethylsulfonyl-4-piperidyl)-3-pyridyl]-2-methoxy-7,7-dimethyl-pyrrolo[3,4-b]pyridin-5-one]: the pEC50 at human CYP11B1 was 5.72; at human CYP11B2, 7.64.

`COc1ccc2c(n1)C(C)(C)N(c1cncc(C3CCN(C(=O)c4cnn(C)c4)CC3)c1)C2=O` [Example 47, 2-Methoxy-7,7-dimethyl-6-[5-[1-(1-methylpyrazole-4-carbonyl)-4-piperidyl]-3-pyridyl]pyrrolo[3,4-b]pyridin-5-one]: the negative-log EC50 (pEC50) on human CYP11B1 was 6.24; at human CYP11B2 it was 7.39.

As for `COc1ccc2c(n1)C(C)(C)N(c1cncc(C3CCN(C(=O)c4cnccc4C)CC3)c1)C2=O` [Example 49, 2-Methoxy-7,7-dimethyl-6-[5-[1-(4-methylpyridine-3-carbonyl)-4-piperidyl]-3-pyridyl]pyrrolo[3,4-b]pyridin-5-one], the pEC50 at human CYP11B1 was 5.88; at human CYP11B2, 6.82.
